The values that follow come from patent US20030144346A1, “Methods and compositions for regulation of 5-alpha reductase activity” (priority 1997, published 2003).

Assay [1] concerns the target T1, type 2 human 5α-reductase (HRED2) (Homo sapiens, UniProt P31213).
T1 sequence (P31213 1-254): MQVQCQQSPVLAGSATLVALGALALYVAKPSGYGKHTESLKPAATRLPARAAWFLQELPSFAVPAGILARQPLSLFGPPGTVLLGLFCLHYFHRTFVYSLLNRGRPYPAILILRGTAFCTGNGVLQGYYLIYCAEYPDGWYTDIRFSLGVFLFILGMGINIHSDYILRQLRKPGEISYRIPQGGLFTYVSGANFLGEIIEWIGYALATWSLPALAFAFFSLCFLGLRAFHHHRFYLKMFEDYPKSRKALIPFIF
The assay can be described thus: Cell free assay of 5α-reductase, microsomes of rat 1A cells expressing type 2 isoenzyme (HRED2).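 On all read-outs here: labeled testosterone and its product dihydrotestosterone measured in microsomal reaction extracts via thin layer chromatography plus radioanalytic scanning.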 The assay is classed as biochemical. Set-up: expressed in transfected cells; host or cells: rat 1A cells infected with pMV7 retrovirus; microsomes. Conditions: for inhibition at 100 µM: read-out: HRED2 % Inhibition @ 100 uM.

Assay [2] concerns the target T2, type 1 human 5α-reductase (HRED1) (Homo sapiens, UniProt P18405).
T2 sequence (P18405 1-259): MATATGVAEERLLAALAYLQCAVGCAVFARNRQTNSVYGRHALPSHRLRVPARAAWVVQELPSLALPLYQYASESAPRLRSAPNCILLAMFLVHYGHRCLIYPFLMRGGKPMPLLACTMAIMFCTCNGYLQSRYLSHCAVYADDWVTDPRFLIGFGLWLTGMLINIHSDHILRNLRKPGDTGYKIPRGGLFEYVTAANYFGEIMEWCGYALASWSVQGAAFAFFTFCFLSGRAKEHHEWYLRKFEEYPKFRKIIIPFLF
The assay can be described thus: Whole cell assay of 5α-reductase, type 1 isoenzyme.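 Further: intact rat 1A cells engineered to express the human type 1 5α-reductase isozyme serve as the enzyme source.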 The assay is classed as cell-based. Set-up: expressed in transfected cells; host or cells: rat 1A cells infected with pMV7 retrovirus.

Assay [3] deals with T2, type 1 human 5α-reductase (HRED1). The assay can be described thus: Cell free assay of 5α-reductase, microsomes of rat 1A cells expressing type 1 isoenzyme (HRED1).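 On all read-outs here: microsomes from rat 1A cells expressing human type 1 5α-reductase, conversion of radiolabeled testosterone to dihydrotestosterone quantified by thin layer chromatography with radioanalytic scanning.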 The class given is biochemical. Set-up: expressed in transfected cells; host or cells: rat 1A cells infected with pMV7 retrovirus; microsomes. Particulars: for inhibition at 100 µM: read-out: HRED1 % Inhibition @ 100 uM.

For assay [4], the target named is T1, type 2 human 5α-reductase (HRED2). In words: Whole cell assay of 5α-reductase, type 2 isoenzyme.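 On all read-outs here: intact rat 1A cells genetically modified to carry human type 2 5α-reductase served as the enzyme source.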 The class given is cell-based. Also noted: expressed in transfected cells; host or cells: rat 1A cells infected with pMV7 retrovirus. Conditions: for HRED2 % Inhibition @ 100 μM / inhibition at 100 µM: Table 7; for pIC50: Table 7, read-out: HCRED2 IC50.
[5] abbreviates: whole cell assay, Table 7, read-out: HCRED1 IC50.
Setting [6] is: 100 uM, cell free assay, Table 2.
Where [7] appears, read: 100 μM, cell free assay, Table 5.
Where [8] appears, read: cell free assay, Table 2 catechols, read-out: HRED1 IC50.

The structures appear in SMILES notation. pIC50: −log10 of the molar value.

For `COc1cc(/C=C/C(=O)CC(=O)/C=C/c2ccc(O)c(OC)c2)ccc1O` [Curcumin], the “inhibitory activity against type 2 isoenzyme, in words” value in assay [1] (cell-free assay) was “very effective inhibitor”. Besides, the inhibition at 100 µM in assay [1] amounted to 87%; in assay [2] (whole cell assay, Table 7), 99%; in assay [3] (cell free assay, Table 3) it was 95%. For the same compound, the “inhibitory activity against type 1 isoenzyme, in words” value in assay [3] (cell-free assay) is “very effective inhibitor”.

As to `CCCCCCCCCCCCCC(=O)OC1Cc2c(O)cc(O)cc2OC1c1cc(O)c(O)c(O)c1` (stereo not drawn) [HZIV 165], in assay [2] (whole cell assay, Table 7), the “HRED1 % Inhibition @ 100 μM” value came to 97%. In addition, the pIC50 in assay [2] (setting [5]) is 4.55; in assay [4] it was 4.49. The “HRED2 % Inhibition @ 100 μM” value in assay [4] is given as 98%.

For the compound `CC/C=C\C/C=C\C/C=C\CCCCCCCC(=O)OC` [Alpha-Linolenic Acid Me Ester], the “HRED1 % Inhibition @ 100 μM” value in assay [2] (whole cell assay, Table 7) is listed as 24%. The pIC50 in assay [2] (setting [5]) is under 4.00. For the same compound, in assay [4], the “HRED2 % Inhibition @ 100 μM” value worked out at 18% and the pIC50 is under 4.00.

With `O=C(O)c1cc(O)c(O)c(O)c1` [Gallic Acid], the pIC50 in assay [2] and in assay [4] was under 4.00 in each case. Moreover, the inhibition at 100 µM was 13% in assay [2] (whole cell assay, Table 7) and 0% in assay [4].

In the case of `CC(Cc1ccc(O)c(O)c1)C(C)Cc1ccc(O)c(O)c1` (stereo not drawn) [Nordihydrogaiaretic Acid, Nordihydroguaiaretic acid], the “HRED2 % Inhibition @ 100 uM” value in assay [1] (setting [6]) came out at 80%. Moreover, the “inhibitory activity in the whole cell assay, type 1 isoenzyme, in words” value in assay [2] (whole cell assay) is reported as “active”.

For `CCCCC/C=C\C/C=C\C/C=C\CCCCC(=O)OC` [Gamma-Linolenic Acid Me Ester], the “HRED1 % Inhibition @ 100 μM” value in assay [2] (whole cell assay, Table 7) was found to be 49%. Moreover, the pIC50 in assay [2] (setting [5]) and in assay [4] was under 4.00 in each case. For the same compound, in assay [4], the “HRED2 % Inhibition @ 100 μM” value was 26%.

`CCCCCCCC(=O)OC1Cc2c(O)cc(O)cc2OC1c1cc(O)c(O)c(O)c1` (stereo not drawn) [HZIV 166]: the “HRED1 % Inhibition @ 100 μM” value in assay [2] (whole cell assay, Table 7) was determined as 89%. In addition, the pIC50 in assay [2] (setting [5]) is 4.24. Further, in assay [4], the “HRED2 % Inhibition @ 100 μM” value is 83% and the pIC50 was 4.14.

Regarding `O=c1c(-c2ccc(O)cc2)coc2cc(O)cc(O)c12` [Genistein], in assay [1] (cell-free assay), the “inhibitory activity against type 2 isoenzyme, in words” value is recorded as “effective inhibitors”. The “inhibitory activity in the whole cell assay, type 2 isoenzyme, in words” value in assay [4] is “significant inhibitory activity”.

With `CC(C)OC(=O)c1cc(O)c(O)c(O)c1` [Isopropyl Gallate], the inhibition at 100 µM was found to be 0% in assay [2] (whole cell assay, Table 7) and 0% in assay [4]. In addition, the negative-log IC50 (pIC50) in assay [2] (setting [5]) and in assay [4] was under 4.00 throughout.

Regarding `COc1cc(/C=C/C(=O)O)ccc1O` [Ferulic Acid], the inhibition at 100 µM was found to be 18% in assay [1] (100 uM, cell free assay, Table 3) and 0% in assay [3] (cell free assay, Table 3). For the same compound, the pIC50 in assay [1] (cell free assay, Table 3 curcumin and related compounds, read-out: HRED2 IC50) is under 4.00; in assay [1] (cell-free assay, read-out: IC50, type 2 isoenzyme) it was under 4.00; in assay [3] (cell free assay, Table 3 curcumin and related compounds, read-out: HRED1 IC50), under 4.00; in assay [3] (cell-free assay, read-out: IC50, type 1 isoenzyme) it was under 4.00.

On to `O=C(C=Cc1cc(O)c(O)c(O)c1)OC1Cc2c(O)cc(O)cc2OC1c1cc(O)c(O)c(O)c1` (stereo not drawn) [HZIV 134], for which the “HRED2 % Inhibition @ 100 μM” value in assay [1] (setting [7]) came to 94%. Further, the pIC50 in assay [1] (cell free assay, Table 5 epigallocatechin derivatives, read-out: HRED2 IC50) was 4.17; in assay [3] (cell free assay, Table 5 epigallocatechin derivatives, read-out: HRED1 IC50), 4.70. The “HRED1 % Inhibition @ 100 μM” value in assay [3] (setting [7]) was 99%.

With `O=c1ccc2cc(O)c(O)cc2o1` [Exculetin], in assay [1] (setting [6]), the “HRED2 % Inhibition @ 100 uM” value came to 13%. Also, the pIC50 in assay [1] (cell free assay, Table 2 catechols, read-out: HRED2 IC50) is under 4.00; in assay [3] (setting [8]), under 4.00. Besides, the “HRED1 % Inhibition @ 100 uM” value in assay [3] (cell free assay, Table 2) is recorded as 7%.

Regarding `O=c1cc(-c2ccccc2)oc2ccc3ccccc3c12` [Beta-napthoflavone], the “HRED2 % Inhibition @ 100 uM” value in assay [1] (100 uM, cell free assay, Table 1) turned out to be 4%. Further, the pIC50 in assay [1] (cell free assay, Table 1 flavanoids, read-out: HRED2 IC50) was under 4.00; in assay [3] (cell free assay, Table 1 flavanoids, read-out: HRED1 IC50) it was under 4.00. Further, the “HRED1 % Inhibition @ 100 uM” value in assay [3] (cell free assay, Table 1) is reported as 3%.

As to `O=C1C=CC(=C(c2ccc(O)c(O)c2)c2ccccc2S(=O)(=O)O)C=C1O` (mixture of isomers) [Pyrocatechol Violet], the inhibition at 100 µM in assay [1] (setting [6]) was 47%; in assay [3] (cell free assay, Table 2) it was 85%. Moreover, the pIC50 in assay [3] (setting [8]) is 4.32.

For orientation: inhibition means the share of the control response that was lost under treatment. A word on the pIC50: it is −log10 of the IC50, conventionally taken in molar units.
